In EP4800015A1, “AZABICYCLO DERIVATIVE AND PREPARATION METHOD THEREFOR, AND USE” (Zhejiang Hisun Pharmaceutical Co., Ltd., priority 2023, dated 2025):

Experiments:
SW48 cells = test: Inhibition of SW48 cell proliferation (CellTiter-Glo); assay type: cell-based; details: Homo sapiens; SW48 cells (MSI-H), 120 hours
Outline: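 SW48 (MSI-H) cells in L-15 with 10% FBS were seeded at 500 per well, cultured overnight at 37 °C, then exposed to compound at final concentrations of 10000 nM to 1.52 nM for 120 h. Viability was read by CellTiter-Glo luminescence, with inhibition relative to 0.1% DMSO. IC50 from nonlinear regression of log concentration versus inhibition.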

RL95-2 cells = test: Inhibition of RL95-2 cell proliferation (CellTiter-Glo); assay type: cell-based; details: Homo sapiens; RL95-2 cells (MSI-H), 120 hours
Outline: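 RL95-2 (MSI-H) cells, 500/well in DMEM/F12 with 10% FBS, adhered overnight, then treated 120 h at 37 °C, 5% CO2 with compound at final 1.52-10000 nM. Viability by CellTiter-Glo luminescence. Inhibition relative to 0.1% DMSO control; IC50 from nonlinear regression of log concentration versus inhibition.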

recombinant human WRN = molecular target: T1, recombinant human WRN (Homo sapiens, UniProt Q14191); test: Inhibition of WRN enzyme activity (ATPase), ADP-Glo Kinase Assay; assay type: biochemical; details: WRN protein 5 nM, Flap 0.1 nM, ATP 30 µM; read-out: IC50
T1 construct: purchased BPS 101264
Outline: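 Recombinant human WRN (5 nM) was preincubated with compound (1000–0.004 nM) for 15 min at room temperature. Flap26 5'-flap DNA (0.1 nM) and 30 µM ATP were then added for 10 min in Tris pH 7.5, MgCl2, NaCl, BSA, Pluronic buffer. ADP was detected by ADP-Glo luminescence, and IC50 was obtained by nonlinear regression versus a 0.1% DMSO control.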

T1 sequence (Q14191 whole entry): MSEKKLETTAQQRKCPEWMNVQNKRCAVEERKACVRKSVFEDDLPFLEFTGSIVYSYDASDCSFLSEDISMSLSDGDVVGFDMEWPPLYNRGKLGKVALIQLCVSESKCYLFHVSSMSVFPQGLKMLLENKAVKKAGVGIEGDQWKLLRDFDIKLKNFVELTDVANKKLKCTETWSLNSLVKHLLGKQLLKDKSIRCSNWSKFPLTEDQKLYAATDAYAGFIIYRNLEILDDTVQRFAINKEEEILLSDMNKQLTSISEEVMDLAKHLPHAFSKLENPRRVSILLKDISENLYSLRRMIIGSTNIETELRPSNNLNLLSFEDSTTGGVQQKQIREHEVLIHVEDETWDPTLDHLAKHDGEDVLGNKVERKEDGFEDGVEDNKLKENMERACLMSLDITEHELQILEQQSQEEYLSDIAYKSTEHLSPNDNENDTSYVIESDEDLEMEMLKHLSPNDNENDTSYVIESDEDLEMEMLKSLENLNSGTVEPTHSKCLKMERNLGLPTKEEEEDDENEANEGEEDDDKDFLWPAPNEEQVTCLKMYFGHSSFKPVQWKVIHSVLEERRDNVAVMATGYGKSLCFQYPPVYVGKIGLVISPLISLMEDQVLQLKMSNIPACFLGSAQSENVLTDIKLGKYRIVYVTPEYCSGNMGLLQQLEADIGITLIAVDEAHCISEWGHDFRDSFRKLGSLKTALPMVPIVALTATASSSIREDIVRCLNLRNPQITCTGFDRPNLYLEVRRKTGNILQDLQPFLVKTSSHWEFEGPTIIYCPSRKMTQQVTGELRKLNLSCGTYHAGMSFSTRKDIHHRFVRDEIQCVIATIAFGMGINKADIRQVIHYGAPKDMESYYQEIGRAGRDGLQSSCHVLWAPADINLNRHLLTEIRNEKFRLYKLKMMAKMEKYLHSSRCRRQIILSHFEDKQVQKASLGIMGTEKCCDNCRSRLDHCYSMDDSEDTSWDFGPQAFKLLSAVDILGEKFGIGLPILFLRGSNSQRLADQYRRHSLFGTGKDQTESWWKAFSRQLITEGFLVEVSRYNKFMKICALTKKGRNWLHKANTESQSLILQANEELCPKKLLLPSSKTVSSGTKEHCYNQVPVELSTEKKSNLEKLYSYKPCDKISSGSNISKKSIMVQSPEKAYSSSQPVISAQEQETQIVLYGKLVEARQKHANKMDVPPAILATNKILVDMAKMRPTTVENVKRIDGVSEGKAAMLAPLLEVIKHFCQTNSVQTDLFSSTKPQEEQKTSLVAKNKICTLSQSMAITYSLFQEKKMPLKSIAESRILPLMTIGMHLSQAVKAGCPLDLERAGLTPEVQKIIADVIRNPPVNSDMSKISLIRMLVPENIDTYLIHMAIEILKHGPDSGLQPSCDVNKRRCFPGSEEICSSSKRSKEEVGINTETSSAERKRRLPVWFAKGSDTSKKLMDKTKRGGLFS

CCc1c(N2CCN(C(=O)c3nc(C)ncc3O)CC2)c(=O)n2nc(-c3ccc4c(c3)CCO4)nc2n1CC(=O)Nc1ccc(C(F)(F)F)cc1Cl [Example 150, N-(2-chloro-4-(trifluoromethyl)phenyl)-2-(2-(2,3-dihydrobenzofuran-5-yl)-5-ethyl-6-(4-(5-hydroxy-2-methylpyrimidine-4-carbonyl)piperazin-1-yl)-7-oxo-[1,2,4]triazolo[1,5-a]pyrimidin-4(7H)-yl)acetamide]
IC50 (SW48 cells): 1 to 100 nM
IC50 (RL95-2 cells): 1 to 100 nM
IC50 (recombinant human WRN): 1 to 100 nM

CCc1c(N2CCN(C(=O)c3ncnc(C)c3O)CC2)c(=O)n2nc(-c3ccc4nn(C)cc4c3)nc2n1CC(=O)Nc1ccc(C(F)(F)F)cc1Cl [Example 99, N-(2-Chloro-4-(trifluoromethyl)phenyl)-2-(5-ethyl-6-(4-(5-hydroxy-6-methylpyrimidine-4-carbonyl)piperazin-1-yl)-2-(2-methyl-2H-indazol-5-yl)-7-oxo-[1,2,4]triazolo[1,5-a]pyrimidin-4(7H)-yl)acetamide]
IC50 (SW48 cells): 1 to 100 nM
IC50 (RL95-2 cells): 1 to 100 nM
IC50 (recombinant human WRN): 1 to 100 nM

CCc1c(N2CCN(C(=O)c3ncnc(C)c3O)CC2)c(=O)n2nc(C3=CCCCOC3)nc2n1CC(=O)Nc1ccc(S(F)(F)(F)(F)F)cc1Cl [Example 84, N-(2-chloro-4-(pentafluoro-λ^6-sulfaneyl)phenyl)-2-(5-ethyl-6-(4-(5-hydroxy-6-methylpyrimidine-4-carbonyl)piperazin-1-yl)-7-oxo-2-(2,5,6,7-tetrahydrooxepin-3-yl)-[1,2,4]triazolo[1,5-a]pyrimidin-4(7H)-yl)acetamide]
IC50 (SW48 cells): 1 to 100 nM
IC50 (RL95-2 cells): 1 to 100 nM
IC50 (recombinant human WRN): 1 to 100 nM

CCc1c(N2CCN(C(=O)c3ncccc3O)CC2)c(=O)n2nc(C3=CC4CC(O)CC4C3)nc2n1CC(=O)Nc1ccc(S(F)(F)(F)(F)F)cc1 (stereo not drawn) [Example 178, 2-(5-ethyl-2-(5-hydroxy-1,3a,4,5,6,6a-hexahydropentalen-2-yl)-6-(4-(3-hydroxypicolinoyl)piperazin-1-yl)-7-oxo-[1,2,4]triazolo[1,5-a]pyrimidin-4(7H)-yl)-N-(4-(pentafluoro-λ^6-sulfaneyl)phenyl) acetamide]
IC50 (SW48 cells): 1 to 100 nM
IC50 (RL95-2 cells): 1 to 100 nM
IC50 (recombinant human WRN): < 1 nM

CCc1c(N2CCN(C(=O)c3ncnc(C)c3O)CC2)c(=O)n2nc(C3=CCCCOC3)nc2n1CC(=O)Nc1ccc(S(F)(F)(F)(F)F)cc1C [Example 158, 2-(5-ethyl-6-(4-(5-hydroxy-6-methylpyrimidine-4-carbonyl)piperazin-1-yl)-7-oxo-2-(2,5,6,7-tetra hydrooxepin-3-yl)-[1,2,4]triazolo[1,5-a]pyrimidin-4(7H)-yl)-N-(2-methyl-4-(pentafluoro-λ^6-sulfaneyl)phenyl)acetamide]
IC50 (SW48 cells): 1 to 100 nM
IC50 (RL95-2 cells): 1 to 100 nM
IC50 (recombinant human WRN): 1 to 100 nM

CCc1c(N2CCN(C(=O)c3ncnc(C)c3O)CC2)c(=O)n2nc(-c3ccc4nccn4c3)nc2n1CC(=O)Nc1ccc(C(F)(F)F)cc1Cl [Example 126, N-(2-chloro-4-(trifluoromethyl)phenyl)-2-(5-ethyl-6-(4-(5-hydroxy-6-methylpyrimidine-4-carbonyl)piperazin-1-yl)-2-(imidazo[1,2-a]pyridin-6-yl)-7-oxo-[1,2,4]triazolo[1,5-a]pyrimidin-4(7H)-yl)acetamide]
IC50 (SW48 cells): 1 to 100 nM
IC50 (RL95-2 cells): 1 to 100 nM
IC50 (recombinant human WRN): 1 to 100 nM

CCc1c(N2CCN(C(=O)c3ncnc(C)c3O)CC2)c(=O)n2nc(-c3cnc4[nH]ccc4c3)nc2n1CC(=O)Nc1ccc(C(F)(F)F)cc1Cl [Example 101, N-(2-chloro-4-(trifluoromethyl)phenyl)-2-(5-ethyl-6-(4-(5-hydroxy-6-methylpyrimidine-4-carbonyl)piperazin-1-yl)-7-oxo-2-(1H-pyrrolo[2,3-b]pyridin-5-yl)-[1,2,4]triazolo[1,5-a]pyrimidin-4(7H) -yl)acetamide]
IC50 (SW48 cells): 1 to 100 nM
IC50 (RL95-2 cells): 1 to 100 nM
IC50 (recombinant human WRN): < 1 nM

[2H]C([2H])([2H])Sc1ccc(NC(=O)Cn2c(CC)c(N3CCN(C(=O)c4ncnc(C)c4O)CC3)c(=O)n3nc(-c4ccc5c(c4)CCO5)nc23)c(Cl)c1 [Example 147, N-(2-chloro-4-((methyl-d3)thio)phenyl)-2-(2-(2,3-dihydrobenzofuran-5-yl)-5-ethyl-6-(4-(5-hydroxy-6-methylpyrimidine-4-carbonyl)piperazin-1-yl)-7-oxo-[1,2,4]triazolo[1,5-a]pyrimidin-4(7H)-yl)acetamide]
IC50 (SW48 cells): 1 to 100 nM
IC50 (RL95-2 cells): 1 to 100 nM
IC50 (recombinant human WRN): 1 to 100 nM

CCc1c(N2CCN(C(=O)c3ncnc(C)c3O)CC2)c(=O)n2nc(-c3cc4ccccc4s3)nc2n1CC(=O)Nc1ccc(S(F)(F)(F)(F)F)cc1 [Example 98, 2-(2-(benzo[b]thiophen-2-yl)-5-ethyl-6-(4-(5-hydroxy-6-methylpyrimidine-4-carbonyl)piperazin-1-yl)-7-oxo-[1,2,4]triazolo[1,5-a]pyrimidin-4(7H)-yl)-N-(4-(pentafluoro-λ^6-sulfaneyl)phenyl)acet amide]
IC50 (SW48 cells): 1 to 100 nM
IC50 (RL95-2 cells): 1 to 100 nM
IC50 (recombinant human WRN): 1 to 100 nM

CCc1c(N2CCN(C(=O)c3ncnc(C)c3O)CC2)c(=O)n2nc(C3=CC4CC(=O)CC4C3)nc2n1CC(=O)Nc1ccc(C(F)(F)F)cc1Cl (stereo not drawn) [Example 17, N-(2-chloro-4-(trifluoromethyl)phenyl)-2-(5-ethyl-6-(4-(5-hydroxy-6-methylpyrimidine-4-carbonyl)piperazin-1-yl)-7-oxo-2-(5-oxo-1,3a,4,5,6,6a-hexahydropentalen-2-yl)-[1,2,4]triazolo[1,5-a]pyrimidin-4(7H)-yl)acetamide]
IC50 (SW48 cells): 1 to 100 nM
IC50 (RL95-2 cells): 1 to 100 nM
IC50 (recombinant human WRN): 1 to 100 nM

CCc1c(N2CCN(C(=O)c3ncnc(C)c3O)CC2)c(=O)n2nc(-c3cccc4c3OCC4)nc2n1CC(=O)Nc1ccc(C(F)(F)F)cc1Cl [Example 154, N-(2-chloro-4-(trifluoromethyl)phenyl)-2-(2-(2,3-dihydrobenzofuran-7-yl)-5-ethyl-6-(4-(5-hydroxy-6-methylpyrimidine-4-carbonyl)piperazin-1-yl)-7-oxo-[1,2,4]triazolo[1,5-a]pyrimidin-4(7H)-yl)acetamide]
IC50 (SW48 cells): 1 to 100 nM
IC50 (RL95-2 cells): 1 to 100 nM
IC50 (recombinant human WRN): 1 to 100 nM

CCc1c(N2CCN(C(=O)c3ncnc(C)c3O)CC2)c(=O)n2nc(C3=CC4CC(OC)CC4C3)nc2n1CC(=O)Nc1ccc(C(F)(F)F)cc1Cl (stereo not drawn) [Example 163, N-(2-chloro-4-(trifluoromethyl)phenyl)-2-(5-ethyl-6-(4-(5-hydroxy-6-methylpyrimidine-4-carbonyl)piperazin-1-yl)-2-(5-methoxy-1,3a,4,5,6,6a-hexahydropentalen-2-yl)-7-oxo-[1,2,4]triazolo[1,5-a]pyrimidin-4(7H)-yl)acetamide]
IC50 (SW48 cells): 1 to 100 nM
IC50 (RL95-2 cells): 1 to 100 nM
IC50 (recombinant human WRN): 1 to 100 nM

CCc1c(N2CCN(C(=O)c3ncnc(C)c3O)CC2)c(=O)n2nc(-c3cc4cnccc4s3)nc2n1CC(=O)Nc1ccc(C(F)(F)F)cc1Cl [Example 153, N-(2-chloro-4-(trifluoromethyl)phenyl)-2-(5-ethyl-6-(4-(5-hydroxy-6-methylpyrimidine-4-carbonyl)piperazin-1-yl)-7-oxo-2-(thieno[3,2-c]pyridin-2-yl)-[1,2,4]triazolo[1,5-a]pyrimidin-4(7H)-yl)a cetamide]
IC50 (SW48 cells): 1 to 100 nM
IC50 (RL95-2 cells): 1 to 100 nM
IC50 (recombinant human WRN): 1 to 100 nM

CCc1c(N2CCN(C(=O)c3nccc(Cl)c3O)CC2)c(=O)n2nc(C3=CC4COCC4C3)nc2n1CC(=O)Nc1ccc(C(F)(F)F)cc1Cl (stereo not drawn) [Example 188, 2-(6-(4-(4-chloro-3-hydroxypicolinoyl)piperazin-1-yl)-5-ethyl-7-oxo-2-(3,3a,4,6a-tetrahydro-1H-cyclopenta[c]furan-5-yl)-[1,2,4]triazolo[1,5-a]pyrimidin-4(7H)-yl)-N-(2-chloro-4-(trifluoromethyl)phenyl)acetamide]
IC50 (SW48 cells): 1 to 100 nM
IC50 (RL95-2 cells): 1 to 100 nM
IC50 (recombinant human WRN): 1 to 100 nM

CCc1c(N2CCN(C(=O)c3ncnc(C)c3O)CC2)c(=O)n2nc(C3=CC4COCC4C3)nc2n1CC(=O)Nc1ccc(C(F)(F)F)cc1Cl (stereo not drawn) [Example 161, N-(2-chloro-4-(trifluoromethyl)phenyl)-2-(5-ethyl-6-(4-(5-hydroxy-6-methylpyrimidine-4-carbonyl)piperazin-1-yl)-7-oxo-2-(3,3a,4,6a-tetrahydro-1H-cyclopenta[c]furan-5-yl)-[1,2,4]triazolo[1,5-a]pyrimidin-4(7H)-yl)acetamide]
IC50 (SW48 cells): 1 to 100 nM
IC50 (RL95-2 cells): 1 to 100 nM
IC50 (recombinant human WRN): 1 to 100 nM

CCc1c(N2CCN(C(=O)c3ncnc(C)c3O)CC2)c(=O)n2nc(C=C3CCC3)nc2n1CC(=O)Nc1ccc(S(F)(F)(F)(F)F)cc1 [Example 53, 2-(2-(cyclobutylidenemethyl)-5-ethyl-6-(4-(5-hydroxy-6-methylpyrimidine-4-carbonyl)piperazin-1-yl)-7-oxo-[1,2,4]triazolo[1,5-a]pyrimidin-4(7H)-yl)-N-(4-(pentafluoro-λ^6-sulfaneyl)phenyl)ace tamide]
IC50 (SW48 cells): 1 to 100 nM
IC50 (RL95-2 cells): 1 to 100 nM
IC50 (recombinant human WRN): 1 to 100 nM
